The record followed here is US7220758B2, “Ether substituted imidazopyridines” (3M Innovative Properties Company, priority 2002, dated 2007).

SMILES strings stand for the structures. Counter-ions that a name gives are not always drawn.

On to `CCCc1nc2c(N)nc(C)c(C)c2n1CCCCCS(=O)(=O)c1ccc(C(F)(F)F)cc1`, for which the melting point lay within 172 to 173.5 °C.

Turning to `CCCc1nc2c(N)nc(C)c(C)c2n1CCCCCS(=O)(=O)c1ccccc1`, the melting point was 134 to 136 °C.

Take `CCCc1nc2c(N)nc(C)c(C)c2n1CCCCCS(=O)(=O)c1ccc(OC)cc1`: the melting point is 130.5 to 132 °C.

`CCCc1nc2c(N)nc(C)c(C)c2n1CCCS(=O)(=O)c1ccc(Cl)cc1`: the melting point was 186.5 to 188 °C.

`CCCc1nc2c(N)nc(C)c(C)c2n1CCCS(=O)(=O)c1ccc(C(=O)O)cc1` (as salt: hydrochloride) [Example 100, 4-[3-(4-Amino-6,7-dimethyl-2-propyl-1II-imidazo[4,5-c]pyridin-1-yl)propane-1-sulfonyl]benzoic acid hydrochloride] had a melting point of more than 250 °C.

In turn, `CCOCc1nc2c(N)nc(C)c(C)c2n1CCOCCCc1ccccc1` (as salt: hydrochloride) [Example 123, 2-Ethoxymethyl-6,7-dimethyl-1-[2-(3-phenylpropoxy)ethyl]-1H-imidazo[4,5-c]pyridin-4-amine hydrochloride] returned a melting point of 128 to 130 °C.

`Cc1nc(N)c2nc(C)n(CCOCCN)c2c1C` (as salt: salt) [Example 14, 1-[2-(2-Aminoethoxy)ethyl]-2,6,7-trimethyl-1H-imidazo[4,5-c]pyridin-4-amine] displayed a melting point of 130 to 133 °C.

Regarding `Cc1nc(N)c2nc(C)n(CCOCCNC(=O)N3CCOCC3)c2c1C` (as salt: salt) [Example 15, N-{2-[2-(4-Amino-2,6,7-trimethyl-1H-imidazo[4,5-c]pyridin-1-yl)ethoxy]ethyl}morpholine-4-carboxamide], the melting point was 205 to 207 °C.

`Cc1nc(N)c2nc(C)n(CCOCCNC(=O)C(C)C)c2c1C` (as salt: salt) [Example 16, N-{2-[2-(4-Amino-2,6,7-trimethyl-1H-imidazo[4,5-c]pyridin-1-yl)ethoxy]ethyl}-2-methylpropanamide] showed a melting point of 179.5 to 182 °C.

In turn, `Cc1nc(N)c2ncn(CCOc3ccccc3)c2c1C` [Example 1, 6,7-Dimethyl-1-(2-phenoxyethyl)-1H-imidazo[4,5-c]pyridin-4-amine] returned a melting point of 197 to 199 °C.

`Cc1nc(N)c2nc(C)n(CCOc3ccccc3)c2c1C` [Example 2, 2,6,7-Trimethyl-1-(2-phenoxyethyl)-1H-imidazo[4,5-c]pyridin-4-amine] came in with a melting point of 176 to 177 °C.

Compound `CCCCc1nc2c(N)nc(C)c(C)c2n1CCOc1ccccc1` [Example 3, 2-Butyl-6,7-dimethyl-1-(2-phenoxyethyl)-1H-imidazo[4,5-c]pyridin-4-amine] displayed a melting point of 130 to 132 °C.

With `CCOCc1nc2c(N)nc(C)c(C)c2n1CCOCc1ccccc1` [Example 4, 1-[2-(Benzyloxy)ethyl]-2-(ethoxymethyl)-6,7-dimethyl-1H-imidazo[4,5-c]pyridin-4-amine], the melting point is 107.3 to 108.2 °C.

Compound `Cc1nc(N)c2nc(C)n(CCOCc3ccccc3)c2c1C` [Example 5, 1-[2-(Benzyloxy)ethyl]-2,6,7-trimethyl-1H-imidazo[4,5-c]pyridin-4-amine] registered a melting point of 136.8 to 137.5 °C.

The compound `CCCc1nc2c(N)nc(C)c(C)c2n1CCOCc1ccccc1` [Example 6, 1-[2-(Benzyloxy)ethyl]-6,7-dimethyl-2-propyl-1H-imidazo[4,5-c]pyridin-4-amine] registered a melting point of 99.5 to 100 °C.

`Cc1nc(N)c2nc(C)n(CCOCC#Cc3ccccc3)c2c1C` [Example 7, 2,6,7-Trimethyl-1-{2-[(3-phenylprop-2-ynyl)oxy]ethyl}-1H-imidazo[4,5-c]pyridin-4-amine] had a melting point of 186.8 to 187.5 °C.

On to `Cc1nc(N)c2nc(C)n(CCOCCCc3ccccc3)c2c1C` [Example 8, 2,6,7-Trimethyl-1-[2-(3-phenylpropoxy)ethyl]-1H-imidazo[4,5-c]pyridin-4-amine], for which the melting point is 118.1 to 119 °C.

Consider `Cc1nc(N)c2nc(C)n(CCOC/C=C/c3ccccc3)c2c1C` [Example 9, 2,6,7-Trimethyl-1-(2-{[(2E)-3-phenylprop-2-enyl]oxy}ethyl)-1H-imidazo[4,5-c]pyridin-4-amine], for which the melting point is 143.7 to 144.8 °C.

Compound `Cc1nc(N)c2nc(C)n(CCOCCCc3cccnc3)c2c1C` [Example 10, 2,6,7-Trimethyl-1-[2-(3-pyridin-3-ylpropoxy)ethyl]-1H-imidazo[4,5-c]pyridin-4-amine] had a melting point of 108.6 to 109.5 °C.

`CCOCc1nc2c(N)nc(C)c(C)c2n1CCOCCCc1cccnc1` [Example 11, 2-(Ethoxymethyl)-6,7-dimethyl-1-[2-(3-pyridin-3-ylpropoxy)ethyl]-1H-imidazo[4,5-c]pyridin-4-amine] had a melting point of 78 to 78.5 °C.

Take `CSCCCCCn1c(C)nc2c(N)nc(C)c(C)c21` [Example 12, 2,6,7-Trimethyl-1-[5-(methylthio)pentyl]-1H-imidazo[4,5-c]pyridin-4-amine]: the melting point was in the range of 121 to 122 °C.

The compound `Cc1nc(N)c2nc(C)n(CCCCCSc3ccccc3)c2c1C` [Example 13, 2,6,7-Trimethyl-1-[5-(phenylthio)pentyl]-1H-imidazo[4,5-c]pyridin-4-amine] had a melting point of 181 to 183 °C.

In turn, `Cc1nc(N)c2nc(C)n(CCCCCS(C)(=O)=O)c2c1C` [Example 78, 1-[5-(Methanesulfonyl)pentyl]-2,6,7-trimethyl-1H-imidazo[4,5-c]pyridin-4-amine] gave a melting point of 199 to 200 °C.

The compound `CCOCc1nc2c(N)nc(C)cc2n1CCOCc1ccccc1` [Example 80, 1-[2-(Benzyloxy)ethyl]-2-(ethoxymethyl)-6-methyl-1H-imidazo[4,5-c]pyridin-4-amine] registered a melting point of 127 to 128 °C.

`CCOCc1nc2c(N)nc(C)c(C)c2n1CCOCCCc1nccs1` [Example 82, 2-(Ethoxymethyl)-6,7-dimethyl-1-{2-[3-(1,3-thiazol-2-yl)propoxy]ethyl}-1H-imidazo[4,5-c]pyridin-4-amine]: the melting point is 91 to 92 °C.

On to `Cc1nc(N)c2ncn(CCOCc3ccncc3)c2c1C` [Example 84, 6,7-Dimethyl-1-[2-(pyridin-4-ylmethoxy)ethyl]-1H-imidazo[4,5-c]pyridin-4-amine], for which the melting point lay within 195 to 196 °C.

`CCCc1nc2c(N)nc(C)c(C)c2n1CCCCCS(=O)(=O)c1ccc(Cl)cc1` [Example 85, 1-[5-(4-Chlorobenzenesulfonyl)pentyl]-6,7-dimethyl-2-propyl-1H-imidazo[4,5-c]pyridin-4-amine] returned a melting point of 147 to 149 °C.

Compound `CCCc1nc2c(N)nc(C)c(C)c2n1CCCCCS(=O)(=O)c1ccccn1` [Example 87, 6,7-Dimethyl-2-propyl-1-[5-(pyridine-2-sulfonyl)pentyl]-1H-imidazo[4,5-c]pyridin-4-amine] showed a melting point of 143 to 144.5 °C.

The compound `CCCc1nc2c(N)nc(C)c(C)c2n1CCCCS(C)(=O)=O` [Example 89, 1-[4-(Methanesulfonyl)butyl]-6,7-dimethyl-2-propyl-1H-imidazo[4,5-c]pyridin-4-amine] displayed a melting point of 152 to 153 °C.

In turn, `CCCc1nc2c(N)nc(C)c(C)c2n1CCCS(C)(=O)=O` [Example 90, 1-[3-(Methanesulfonyl)propyl]-6,7-dimethyl-2-propyl-1H-imidazo[4,5-c]pyridin-4-amine] came in with a melting point of 153.5 to 155 °C.

For `CCCc1nc2c(N)nc(C)c(C)c2n1CCCCCCS(C)(=O)=O` [Example 91, 1-[6-(Methanesulfonyl)hexyl]-6,7-dimethyl-2-propyl-1H-imidazo[4,5-c]pyridin-4-amine], the melting point is 157 to 158 °C.

With `CCCc1nc2c(N)nc(C)c(C)c2n1CCCCCS(=O)(=O)c1ccc(F)cc1` [Example 92, 1-[5-(4-Fluorobenzenesulfonyl)pentyl]-6,7-dimethyl-2-propyl-1H-imidazo[4,5-c]pyridin-4-amine], the melting point is 130 to 132 °C.

For the compound `CCCc1nc2c(N)nc(C)c(C)c2n1CCCCCS(=O)(=O)c1ccc(F)cc1F` [Example 93, 1-[5-(2,4-Difluorobenzenesulfonyl)pentyl]-6,7-dimethyl-2-propyl-1H-imidazo[4,5-c]pyridin-4-amine], the melting point was 130 to 132 °C.

`CCCc1nc2c(N)nc(C)c(C)c2n1CCCCCS(=O)(=O)c1ccc(Cl)cc1Cl` [Example 95, 1-[5-(2,4-Dichlorobenzenesulfonyl)pentyl]-6,7-dimethyl-2-propyl-1H-imidazo[4,5-c]pyridin-4-amine] displayed a melting point of 130 to 131.5 °C.

Take `CCCc1nc2c(N)nc(C)c(C)c2n1CCCCCS(C)(=O)=O` [Example 96, 1-[5-(Methanesulfonyl)pentyl]-6,7-dimethyl-2-propyl-1H-imidazo[4,5-c]pyridin-4-amine]: the melting point was in the range of 145 to 146 °C.

For the compound `CCCc1nc2c(N)nc(C)c(C)c2n1CCCS(=O)(=O)c1ccccn1` [Example 98, 6,7-Dimethyl-2-propyl-1-[3-(pyridine-2-sulfonyl)propyl]-1H-imidazo[4,5-c]pyridin-4-amine], the melting point fell in the range of 172 to 173.5 °C.

`CCCc1nc2c(N)nc(C)c(C)c2n1CCCS(=O)(=O)c1ccc(C(=O)OCC)cc1` [Example 99, 4-[3-(4-Amino-6,7-dimethyl-2-propyl-1H-imidazo[4,5-c]pyridin-1-yl)propane-1-sulfonyl]benzoic acid ethyl ester] yielded a melting point of 169 to 171 °C.

Compound `CCCc1nc2c(N)nc(C)c(C)c2n1CCCS(=O)(=O)c1ccc(C(=O)N2CCOCC2)cc1` [Example 101, {4-[3-(4-Amino-6,7-dimethyl-2-propyl-1H-imidazo[4,5-c]pyridin-1-yl)propane-1-sulfonyl]phenyl}morpholin-4-ylmethanone] yielded a melting point of 224 to 226 °C.

For the compound `CCc1nc2c(N)nc(C)c(C)c2n1CCOCCNS(C)(=O)=O` [Example 102, N-{2-[2-(4-Amino-2-ethyl-6,7-dimethyl-1H-imidazo[4,5-c]pyridin-1-yl)ethoxy]ethyl}methanesulfonamide], the melting point lay in the range of 145 to 147 °C.

`CCc1nc2c(N)nc(C)c(C)c2n1CCOCCNC(=O)N1CCOCC1` [Example 103, N-{2-[2-(4-Amino-2-ethyl-6,7-dimethyl-1H-imidazo[4,5-c]pyridin-1-yl)ethoxy]ethyl}morpholine-4-carboxamide] had a melting point of 182 to 184 °C.
